Measured values reported in patent US12150998B2, “Bicyclic peptide ligands specific for P-selectin” (BicycleTx Limited, priority 2021, dated 2024).
Read-outs that look alike come from different tables or passages of the source. Starred links: 1 amine or outer side, 2 acyl side, 3 side chain; linkers in the order of their positions; H or OH if unused. Positions of bridges follow the written chain, without caps; N, C: chain ends. Chains are numbered I, II in the order given. X3 = O=C(CCOCCN(CCOCCC(=O)NCCOCCOCCOCCOCCOCCOCCOCCOCCOCCOCCOCCOCCOCCOCCOCCOCCOCCOCCOCCOCCOCCOCCOCCn1cc(CCC(=O)[*:2])nn1)CCOCCC(=O)NCCOCCOCCOCCOCCOCCOCCOCCOCCOCCOCCOCCOCCOCCOCCOCCOCCOCCOCCOCCOCCOCCOCCOCCn1cc(CCC(=O)[*:3])nn1)NCCOCCOCCOCCOCCOCCOCCOCCOCCOCCOCCOCCOCCOCCOCCOCCOCCOCCOCCOCCOCCOCCOCCOCCn1cc(CCC(=O)[*:1])nn1; X4 = O=C(CCOCCN(CCOCCC(=O)NCCOCCOCCOCCOCCOCCOCCOCCOCCOCCOCCn1cc(CCC(=O)[*:2])nn1)CCOCCC(=O)NCCOCCOCCOCCOCCOCCOCCOCCOCCOCCOCCn1cc(CCC(=O)[*:3])nn1)NCCOCCOCCOCCOCCOCCOCCOCCOCCOCCOCCn1cc(CCC(=O)[*:1])nn1; TATA = O=C(CC[*:1])N1CN(C(=O)CC[*:2])CN(C(=O)CC[*:3])C1

Biological target: T1, human P-Selectin protein (Homo sapiens, UniProt P16109)
T1 sequence (P16109 42-830): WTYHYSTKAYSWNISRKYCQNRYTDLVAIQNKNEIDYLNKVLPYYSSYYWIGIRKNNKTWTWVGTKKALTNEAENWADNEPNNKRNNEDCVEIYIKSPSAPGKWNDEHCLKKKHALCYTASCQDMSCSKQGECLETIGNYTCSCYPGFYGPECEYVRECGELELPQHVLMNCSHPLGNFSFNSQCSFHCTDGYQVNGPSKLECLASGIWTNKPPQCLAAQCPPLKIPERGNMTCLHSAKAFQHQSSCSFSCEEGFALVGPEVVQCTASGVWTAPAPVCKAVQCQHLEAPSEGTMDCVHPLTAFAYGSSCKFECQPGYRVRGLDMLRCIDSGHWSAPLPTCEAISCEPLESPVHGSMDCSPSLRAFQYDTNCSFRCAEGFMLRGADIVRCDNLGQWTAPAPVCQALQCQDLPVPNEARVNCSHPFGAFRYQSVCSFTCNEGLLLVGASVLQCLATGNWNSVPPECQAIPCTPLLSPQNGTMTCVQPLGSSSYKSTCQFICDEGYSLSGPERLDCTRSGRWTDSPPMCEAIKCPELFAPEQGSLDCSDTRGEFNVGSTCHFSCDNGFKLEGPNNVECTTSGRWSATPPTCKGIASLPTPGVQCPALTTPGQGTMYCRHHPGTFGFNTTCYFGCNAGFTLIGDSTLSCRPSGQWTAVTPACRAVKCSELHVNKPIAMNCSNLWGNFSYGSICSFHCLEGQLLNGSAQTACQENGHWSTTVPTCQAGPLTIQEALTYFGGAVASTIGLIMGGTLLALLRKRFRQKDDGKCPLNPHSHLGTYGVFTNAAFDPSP
Assay: SPR binding assay (Biacore)
Conditions: recombinant biotinylated human P-Selectin, 25° C.
Experimental: Biacore experiments were performed to determine ka (M−1s−1), kd (s−1), KD (nM) values of monomeric peptides binding to human Selectin proteins. Recombinant biotinylated human P-Selectin protein was used. For analysis of binding, either a Biacore 3000 or 5200 instrument was used with a CMS sensor chip (GE Healthcare). For sensor chip surface preparation, streptavidin was immobilized on the chip using standard amine-coupling chemistry at 25° C. with HBS-N (10 mM HEPES, 0.15 M NaCl, pH 7.4) as the running buffer. The carboxymethyl dextran surface was activated with a 12 min injection of a 1:1 ratio of 0.4 M 1-ethyl-3-(3-dim ethyl aminopropyl) carbodiimide hydrochloride (EDC)/0.1 M N-hydroxy succinimide (NHS) at a flow rate of 10 μl/min. For capture of streptavidin, protein was diluted to 0.2 mg/ml in 10 mM sodium acetate (pH 4.5) and captured by injecting 70 μl onto the activated chip surface. Residual activated groups were blocked with a 7 min injection of 1 M ethanolamine (pH 8.5). Biotinylated protein stock was diluted 1:100 in HBS-N and captured on one flow cell at 5 μl/min to a level of 1000-1500 RU. Buffer was changed to PBS/0.05% Tween 20 and a dilution series of the peptides was prepared in this buffer with a final DMSO concentration of 0.5%. The top concentration of the analyte varied from 200 nM to 50 μM; depending on predicted affinity of the interaction. In all cases a titration was performed with either seven 2-fold dilutions or five 3-fold dilutions. The SPR analysis was run at 25° C. with a flow rate of 50-80 μl/min with 60 seconds association and a suitable disassociation period (100-900 seconds). Data were corrected for DMSO excluded volume effects. All data were double-referenced for blank injections and reference surface using standard processing procedures and data processing and kinetic fitting were performed using Scrubber software, version 2.0c (BioLogic Software). Data were fitted using mass transport model allowing for mass transport effects where appropriate.

Compound | Kd (Affinity KD determined by SPR) [nM] | Kd (read-out: Affinity KD determined by SPR) [nM]
CSCC[C@@H]1NC(=O)[C@H](Cc2ccc(O)cc2)NC(=O)[C@@H](NC(=O)[C@H](C)NC(C)=O)CSCCC(=O)N2CN3CN(C2)C(=O)CCSC[C@H](NC(=O)[C@H](Cc2c[nH]c4ccccc24)NC(=O)[C@H](CCC(=O)O)NC1=O)C(=O)N[C@@H](CC(=O)O)C(=O)N[C@@H](C(C)C)C(=O)N[C@@H]([C@@H](C)O)C(=O)N[C@@H](CC(=O)O)C(=O)N[C@@H](Cc1ccc(O)cc1)C(=O)NCC(=O)N[C@H](C(=O)N[C@@H](CCCCNC(=O)CCc1cn(CCOCCOCCOCCOCCOCCOCCOCCOCCOCCOCCNC(=O)CCOCC(COCCC(=O)NCCOCCOCCOCCOCCOCCOCCOCCOCCOCCOCCn2cc(CCC(=O)NCCCC[C@H](NC(=O)[C@@H]4CSCCC(=O)N5CN6CN(C5)C(=O)CCSC[C@H](NC(=O)[C@H](Cc5c[nH]c7ccccc57)NC(=O)[C@H](CCC(=O)O)NC(=O)[C@H](CCSC)NC(=O)[C@H](Cc5ccc(O)cc5)NC(=O)[C@@H](NC(=O)[C@H](C)NC(C)=O)CSCCC6=O)C(=O)N[C@@H](CC(=O)O)C(=O)N[C@@H](C(C)C)C(=O)N[C@@H]([C@@H](C)O)C(=O)N[C@@H](CC(=O)O)C(=O)N[C@@H](Cc5ccc(O)cc5)C(=O)NCC(=O)N4)C(N)=O)nn2)(COCCC(=O)NCCOCCOCCOCCOCCOCCOCCOCCOCCOCCOCCn2cc(CCC(=O)NCCCC[C@H](NC(=O)[C@@H]4CSCCC(=O)N5CN6CN(C5)C(=O)CCSC[C@H](NC(=O)[C@H](Cc5c[nH]c7ccccc57)NC(=O)[C@H](CCC(=O)O)NC(=O)[C@H](CCSC)NC(=O)[C@H](Cc5ccc(O)cc5)NC(=O)[C@@H](NC(=O)[C@H](C)NC(C)=O)CSCCC6=O)C(=O)N[C@@H](CC(=O)O)C(=O)N[C@@H](C(C)C)C(=O)N[C@@H]([C@@H](C)O)C(=O)N[C@@H](CC(=O)O)C(=O)N[C@@H](Cc5ccc(O)cc5)C(=O)NCC(=O)N4)C(N)=O)nn2)COCCC(=O)NCCOCCOCCOCCOCCOCCOCCOCCOCCOCCOCCn2cc(CCC(=O)NCCCC[C@H](NC(=O)[C@@H]4CSCCC(=O)N5CN6CN(C5)C(=O)CCSC[C@H](NC(=O)[C@H](Cc5c[nH]c7ccccc57)NC(=O)[C@H](CCC(=O)O)NC(=O)[C@H](CCSC)NC(=O)[C@H](Cc5ccc(O)cc5)NC(=O)[C@@H](NC(=O)[C@H](C)NC(C)=O)CSCCC6=O)C(=O)N[C@@H](CC(=O)O)C(=O)N[C@@H](C(C)C)C(=O)N[C@@H]([C@@H](C)O)C(=O)N[C@@H](CC(=O)O)C(=O)N[C@@H](Cc5ccc(O)cc5)C(=O)NCC(=O)N4)C(N)=O)nn2)nn1)C(N)=O)CSCCC3=O [BCY5464] | 37.3 | 
CSCC[C@@H]1NC(=O)[C@H](Cc2ccc(O)cc2)NC(=O)[C@@H](NC(=O)[C@H](C)NC(C)=O)CSCCC(=O)N2CN3CN(C2)C(=O)CCSC[C@H](NC(=O)[C@H](Cc2c[nH]c4ccccc24)NC(=O)[C@H](CCC(=O)O)NC1=O)C(=O)N[C@@H](CC(=O)O)C(=O)N[C@@H](C(C)C)C(=O)N[C@@H]([C@@H](C)O)C(=O)N[C@@H](CC(=O)O)C(=O)N[C@@H](Cc1ccc(O)cc1)C(=O)NCC(=O)N[C@H](C(=O)N[C@@H](CCCCNC(=O)CCc1cn(CCOCCOCCOCCOCCOCCOCCOCCOCCOCCOCCOCCOCCOCCOCCOCCOCCOCCOCCOCCOCCOCCOCCOCCNC(=O)CCOCC(COCCC(=O)NCCOCCOCCOCCOCCOCCOCCOCCOCCOCCOCCOCCOCCOCCOCCOCCOCCOCCOCCOCCOCCOCCOCCOCCn2cc(CCC(=O)NCCCC[C@H](NC(=O)[C@@H]4CSCCC(=O)N5CN6CN(C5)C(=O)CCSC[C@H](NC(=O)[C@H](Cc5c[nH]c7ccccc57)NC(=O)[C@H](CCC(=O)O)NC(=O)[C@H](CCSC)NC(=O)[C@H](Cc5ccc(O)cc5)NC(=O)[C@@H](NC(=O)[C@H](C)NC(C)=O)CSCCC6=O)C(=O)N[C@@H](CC(=O)O)C(=O)N[C@@H](C(C)C)C(=O)N[C@@H]([C@@H](C)O)C(=O)N[C@@H](CC(=O)O)C(=O)N[C@@H](Cc5ccc(O)cc5)C(=O)NCC(=O)N4)C(N)=O)nn2)(COCCC(=O)NCCOCCOCCOCCOCCOCCOCCOCCOCCOCCOCCOCCOCCOCCOCCOCCOCCOCCOCCOCCOCCOCCOCCOCCn2cc(CCC(=O)NCCCC[C@H](NC(=O)[C@@H]4CSCCC(=O)N5CN6CN(C5)C(=O)CCSC[C@H](NC(=O)[C@H](Cc5c[nH]c7ccccc57)NC(=O)[C@H](CCC(=O)O)NC(=O)[C@H](CCSC)NC(=O)[C@H](Cc5ccc(O)cc5)NC(=O)[C@@H](NC(=O)[C@H](C)NC(C)=O)CSCCC6=O)C(=O)N[C@@H](CC(=O)O)C(=O)N[C@@H](C(C)C)C(=O)N[C@@H]([C@@H](C)O)C(=O)N[C@@H](CC(=O)O)C(=O)N[C@@H](Cc5ccc(O)cc5)C(=O)NCC(=O)N4)C(N)=O)nn2)COCCC(=O)NCCOCCOCCOCCOCCOCCOCCOCCOCCOCCOCCOCCOCCOCCOCCOCCOCCOCCOCCOCCOCCOCCOCCOCCn2cc(CCC(=O)NCCCC[C@H](NC(=O)[C@@H]4CSCCC(=O)N5CN6CN(C5)C(=O)CCSC[C@H](NC(=O)[C@H](Cc5c[nH]c7ccccc57)NC(=O)[C@H](CCC(=O)O)NC(=O)[C@H](CCSC)NC(=O)[C@H](Cc5ccc(O)cc5)NC(=O)[C@@H](NC(=O)[C@H](C)NC(C)=O)CSCCC6=O)C(=O)N[C@@H](CC(=O)O)C(=O)N[C@@H](C(C)C)C(=O)N[C@@H]([C@@H](C)O)C(=O)N[C@@H](CC(=O)O)C(=O)N[C@@H](Cc5ccc(O)cc5)C(=O)NCC(=O)N4)C(N)=O)nn2)nn1)C(N)=O)CSCCC3=O [BCY5465] | 140 | 
I: Ac-ACYMEWCDVTDYGCK-NH2 / II: Ac-ACYMEWCDVTDYGCK-NH2 / III: Ac-ACYMEWCDVTDYGCK-NH2 (linker I:2-I:7-I:14, II:2-II:7-II:14, III:2-III:7-III:14 via TATA; linker I:15-II:15-III:15 via X3) [BCY5461] | 230 | 
I: Ac-ACYMEWCDVTDYGCK-NH2 / II: Ac-ACYMEWCDVTDYGCK-NH2 / III: Ac-ACYMEWCDVTDYGCK-NH2 (linker I:2-I:7-I:14, II:2-II:7-II:14, III:2-III:7-III:14 via TATA; linker I:15-II:15-III:15 via X4) [BCY5460] |  | 239
